Test results from patent US12590099B2, “Inhibitors of histone deacetylase useful for the treatment or prevention of HIV infection” (Merck Sharp & Dohme LLC, priority 2018, dated 2026).
Where two headings read alike, the source gives them in different places.

Legend:
Type in all cases: biochemical
Recombinant human HDAC1 = biological target: T1, Recombinant human HDAC1 (Homo sapiens, UniProt Q13547); assay: Human HDAC enzyme inhibitor Fluor-de-Lys assay, HDAC1
T1 construct: FLAG (C); made in house
T1 sequence (Q13547 whole entry): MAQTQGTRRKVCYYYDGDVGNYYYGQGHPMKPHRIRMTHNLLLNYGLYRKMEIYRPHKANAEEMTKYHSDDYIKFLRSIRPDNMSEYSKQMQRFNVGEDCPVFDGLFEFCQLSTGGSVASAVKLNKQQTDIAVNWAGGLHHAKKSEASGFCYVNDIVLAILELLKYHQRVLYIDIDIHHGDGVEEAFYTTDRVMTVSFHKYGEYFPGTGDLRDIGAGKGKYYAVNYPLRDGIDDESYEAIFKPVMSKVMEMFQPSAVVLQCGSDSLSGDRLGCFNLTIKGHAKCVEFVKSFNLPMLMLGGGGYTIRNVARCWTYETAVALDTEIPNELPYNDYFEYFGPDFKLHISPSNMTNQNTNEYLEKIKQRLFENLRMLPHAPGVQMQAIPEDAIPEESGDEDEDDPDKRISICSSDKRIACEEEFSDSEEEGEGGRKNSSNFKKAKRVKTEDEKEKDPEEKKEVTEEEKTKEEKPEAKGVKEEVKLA
Procedure, shortened: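 Fluor-de-Lys format at room temperature (23° C.): compounds titrated 10-point, 1:3, preincubated with HDAC before substrate addition; HDAC1 run at 0.3 nM enzyme with 20 μM BML-KI104. Developer with excess HDAC inhibitor ends the reaction, and trypsin-liberated AMC fluorescence is the read-out.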

Recombinant human HDAC2 = biological target: T2, Recombinant human HDAC2 (Homo sapiens, UniProt Q92769); assay: Human HDAC enzyme inhibitor Fluor-de-Lys assay, HDAC2
T2 construct: Full length human HDAC2-FLAG was expressed in baculovirus infected Sf9 cells; FLAG (C); made in house; host or cells: Sf9 (baculovirus)
T2 sequence (Q92769 whole entry): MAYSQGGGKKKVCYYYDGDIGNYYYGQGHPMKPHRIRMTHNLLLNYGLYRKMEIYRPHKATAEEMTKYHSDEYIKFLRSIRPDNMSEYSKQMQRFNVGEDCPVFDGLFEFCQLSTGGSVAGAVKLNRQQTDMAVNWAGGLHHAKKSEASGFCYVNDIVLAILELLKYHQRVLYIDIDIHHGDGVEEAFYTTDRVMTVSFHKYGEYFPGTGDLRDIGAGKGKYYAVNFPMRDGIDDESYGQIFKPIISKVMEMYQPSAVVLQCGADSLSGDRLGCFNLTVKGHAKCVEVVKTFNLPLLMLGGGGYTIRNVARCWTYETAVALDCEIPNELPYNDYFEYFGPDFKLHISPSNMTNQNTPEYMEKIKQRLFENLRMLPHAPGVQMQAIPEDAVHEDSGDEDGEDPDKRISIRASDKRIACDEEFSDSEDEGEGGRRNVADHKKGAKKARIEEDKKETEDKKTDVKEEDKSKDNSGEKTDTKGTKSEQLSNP
Procedure, shortened: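 Fluor-de-Lys format at room temperature (23° C.): compounds titrated 10-point, 1:3, preincubated with HDAC before substrate addition. Developer with excess HDAC inhibitor ends the reaction, and trypsin-liberated AMC fluorescence is the read-out.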

HDAC6 = biological target: T3, HDAC6 (Homo sapiens, UniProt Q9UBN7); assay: Human HDAC enzyme inhibitor Fluor-de-Lys assay, HDAC6
T3 sequence (Q9UBN7 1-1215): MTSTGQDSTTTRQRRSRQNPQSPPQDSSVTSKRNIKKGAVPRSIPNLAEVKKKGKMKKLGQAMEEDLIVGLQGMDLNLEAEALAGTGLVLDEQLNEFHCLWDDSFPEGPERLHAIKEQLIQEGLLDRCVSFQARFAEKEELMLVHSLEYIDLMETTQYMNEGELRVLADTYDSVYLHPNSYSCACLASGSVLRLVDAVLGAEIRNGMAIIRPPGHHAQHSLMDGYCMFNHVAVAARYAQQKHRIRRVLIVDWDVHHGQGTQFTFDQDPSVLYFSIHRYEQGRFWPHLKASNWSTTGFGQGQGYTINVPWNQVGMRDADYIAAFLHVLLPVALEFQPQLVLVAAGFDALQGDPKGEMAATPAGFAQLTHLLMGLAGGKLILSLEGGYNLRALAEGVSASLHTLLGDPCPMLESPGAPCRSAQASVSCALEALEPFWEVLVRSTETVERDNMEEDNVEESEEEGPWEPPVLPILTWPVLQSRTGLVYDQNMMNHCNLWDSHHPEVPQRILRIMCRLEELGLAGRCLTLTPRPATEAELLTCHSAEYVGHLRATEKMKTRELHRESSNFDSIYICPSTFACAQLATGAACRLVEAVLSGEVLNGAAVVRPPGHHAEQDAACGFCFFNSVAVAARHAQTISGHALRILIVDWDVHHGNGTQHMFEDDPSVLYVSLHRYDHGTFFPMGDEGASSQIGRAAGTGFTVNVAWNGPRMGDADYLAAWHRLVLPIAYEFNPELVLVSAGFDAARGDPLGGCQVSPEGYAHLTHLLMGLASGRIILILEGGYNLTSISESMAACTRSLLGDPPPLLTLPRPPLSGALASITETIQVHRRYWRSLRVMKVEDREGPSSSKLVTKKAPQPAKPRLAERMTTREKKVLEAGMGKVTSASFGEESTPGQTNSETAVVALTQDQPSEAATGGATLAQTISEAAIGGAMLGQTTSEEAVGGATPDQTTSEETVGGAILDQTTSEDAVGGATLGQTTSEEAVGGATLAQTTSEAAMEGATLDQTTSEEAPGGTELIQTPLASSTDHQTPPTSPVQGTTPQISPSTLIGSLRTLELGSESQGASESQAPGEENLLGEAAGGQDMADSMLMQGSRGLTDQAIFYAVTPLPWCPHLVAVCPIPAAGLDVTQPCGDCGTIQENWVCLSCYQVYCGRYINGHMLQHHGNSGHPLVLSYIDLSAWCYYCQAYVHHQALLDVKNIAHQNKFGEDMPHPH

Recombinant human HDAC8 = biological target: T4, Recombinant human HDAC8 (Homo sapiens, UniProt Q9BY41); assay: Human HDAC enzyme inhibitor Fluor-de-Lys assay, HDAC8
T4 construct: purchased Enzo Life Sciences BML-SE145-0100
T4 sequence (Q9BY41 1-377): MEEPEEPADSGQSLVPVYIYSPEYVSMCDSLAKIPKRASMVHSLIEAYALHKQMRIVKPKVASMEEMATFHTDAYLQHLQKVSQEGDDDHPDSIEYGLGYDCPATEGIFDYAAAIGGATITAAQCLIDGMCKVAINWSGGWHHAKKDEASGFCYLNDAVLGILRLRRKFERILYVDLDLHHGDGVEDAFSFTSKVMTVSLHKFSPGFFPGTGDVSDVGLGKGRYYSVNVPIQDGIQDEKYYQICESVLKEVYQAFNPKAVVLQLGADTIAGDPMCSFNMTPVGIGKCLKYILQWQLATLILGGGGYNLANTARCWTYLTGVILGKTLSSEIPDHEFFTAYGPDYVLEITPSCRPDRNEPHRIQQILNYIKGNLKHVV

[1] = recombinant human HDAC1, Fluor-de-Lys assay
[2] = recombinant human HDAC2, Fluor-de-Lys assay
[3] = recombinant human HDAC8, Fluor-de-Lys assay

Row | SMILES | IC50 (Recombinant human HDAC1; [1]) [nM] | IC50 (Recombinant human HDAC2; [2]) [nM] | IC50 (HDAC6; HDAC6, Fluor-de-Lys assay) [nM] | IC50 (Recombinant human HDAC8; [3]) [nM] | IC50 (Recombinant human HDAC1) [nM] | IC50 (Recombinant human HDAC2) [nM] | IC50 (HDAC6) [nM] | IC50 (Recombinant human HDAC8) [nM]
1 | CCC(=O)CCCCC[C@H](NC(=O)CC1CC2(C1)CN(C)C2)c1nnc(-c2cc3ccccc3nc2OC)o1 [Compound 308] | 27.3 | 97.7 | 1280 | > 45000 |  |  |  | 
2 | CCC(=O)CCCCC[C@H](NC(=O)[C@H]1CC12CCN(C)CC2)c1ncc(-c2ccc(F)cc2F)[nH]1 [Compound 289] | 63.1 | 259 | 10400 | 3750 |  |  |  | 
3 | CCC(=O)CCCCC[C@H](NC(=O)[C@H]1CC12CCN(C)CC2)c1ncc(-c2ccc3nc(C(F)(F)F)ccc3c2)o1 [Compound 78, (1S)-6-methyl-N-[(1S)-7-oxo-1-{5-[2-(trifluoromethyl)quinolin-6-yl]-1,3-oxazol-2-yl}nonyl]-6-azaspiro[2.5]octane-1-carboxamide] |  |  |  |  | 18.3 | 62.3 | 33500 | > 45000
4 | CCC(=O)CCCCC[C@H](NC(=O)[C@H]1CC12CCN(C)CC2)c1[nH]c(-c2ccc(F)cc2)nc1Cl [Compound 240] | 5.73 | 38.1 | 38400 | 26700 |  |  |  | 
5 | CCC(=O)CCCCC[C@H](NC(=O)C1CC12CCN(CC)CC2)c1nc(-c2ccc(F)cc2)[nH]c1-c1cnc(OC)nc1 (some centres unmarked) [Compound 247] | 39 | 214 | > 45000 | 21800 |  |  |  | 
6 | CCC(=O)CCCCC[C@H](NC(=O)C1=NOC2(CCN(CC3CC3)CC2)C1)c1ncc(-c2cc3ccc(C)nc3cc2F)[nH]1 [Compound 234] | 0.56 | 14.1 | > 900 | > 900 |  |  |  | 
7 | CCC(=O)CCCCC[C@H](NC(=O)C1CCC2(CC1)CN(C(C)C)C2)c1ncc(-c2cc3ccccc3nc2OC)[nH]1 [Compound 272] | 2.08 | 8.2 | 449 | 1250 |  |  |  | 
8 | CCC(=O)CCCCC[C@H](NC(=O)[C@H]1CC12CCN(C)CC2)c1ncc(-c2ccc(-c3cccnc3)nc2)[nH]1 [Compound 262] | 4.42 | 18.8 | 33500 | 12600 |  |  |  | 
9 | CCC(=O)CCCCC[C@H](NC(=O)C1CC12CCN(CC)CC2)c1nc(-c2ccc(F)cc2)[nH]c1-c1ccsc1 (some centres unmarked) [Compound 250] | 80.7 | 192 | 21900 | 38300 |  |  |  | 
10 | CCC(=O)CCCCC[C@H](NC(=O)CC1CC2(CNC2)C1)c1nnc(-c2cc3ccccc3nc2OC)o1 [Compound 301] | 24.6 | 77.6 | 3480 | 29500 |  |  |  | 
11 | CCC(=O)CCCCC[C@H](NC(=O)[C@H]1CC12CCN(C(C)C)CC2)c1ncc(-c2ccc3nc(C)ccc3c2)[nH]1 [Compound 83] |  |  |  |  | < 1.5 | < 1.5 | 2620 | 15200
12 | CCC(=O)CCCCC[C@H](NC(=O)[C@H]1CC12CCN(CC)CC2)c1ncc(-c2cnc3cc(C(F)(F)F)ccc3c2)[nH]1 [Compound 341] | 0.42 | 2.5 | 8970 | 11900 |  |  |  | 
13 | CCC(=O)CCCCC[C@H](NC(=O)[C@H]1CC12CCN(CC)CC2)c1ncc(-c2ccc(-c3nccs3)cc2)o1 [Compound 93] |  |  |  |  | 7.15 | 25.6 | 955 | 31800
14 | CCC(=O)CCCCC[C@H](NC(=O)[C@H]1CC12CCN(CC1CC1)CC2)c1ncc(-c2cc3ccn(C)c(=O)c3cc2OC)o1 [Compound 229] | 0.09 | 0.7 | 451 | > 900 |  |  |  | 
15 | CCC(=O)CCCCC[C@H](NC(=O)C1CCC2(CC1)CNC2)c1nnc(-c2cc3ccccc3nc2OC)o1 [Compound 299] | 12.2 | 35.8 | 2360 | 27800 |  |  |  | 
16 | CCC(=O)CCCCC[C@H](NC(=O)[C@H]1CC12CCN(C)CC2)c1ncc(-c2ccnc(N3CCOCC3)c2F)[nH]1 [Compound 261] | 25.2 | 102 | 2470 | 4590 |  |  |  | 
17 | CCC(=O)CCCCC[C@H](NC(=O)[C@H]1CC12CCN(C)CC2)c1ncc(-c2ccc3c(c2)c2ccccc2n3C)[nH]1 [Compound 265] | 5.14 | 12.4 | 630 | 4600 |  |  |  | 
18 | CCC(=O)CCCCC[C@H](NC(=O)CC1CC2(C1)CN(C(C)=O)C2)c1ncc(-c2ccccc2)[nH]1 [Compound 300, (S)-2-(2-acetyl-2-azaspiro[3.3]heptan-6-yl)-N-(7-oxo-1-(5-phenyl-1H-imidazol-2-yl)nonyl)acetamide] | 199 | 802 | 23200 | 11100 |  |  |  | 
19 | CCC(=O)CCCCC[C@H](NC(=O)[C@H]1CC12CCN(C)CC2)c1ncc(-c2ccc(C)nc2OC)[nH]1 [Compound 268] | 3.89 | 17.2 | 1780 | 6080 |  |  |  | 
20 | CCC(=O)CCCCC[C@@H](NC(=O)C1CCC2(CC1)CNC2)c1ncc(-c2ccccc2)[nH]1 [Compound 298] | 36.5 | 144 | 5070 | 1690 |  |  |  | 
21 | CCC(=O)CCCCC[C@@H](NC(=O)C1CCC2(CC1)CN(C)C2)c1ncc(-c2ccccc2)[nH]1 [Compound 310] | 33 | 167 | 6050 | 6500 |  |  |  | 
22 | CCC(=O)CCCCC[C@H](NC(=O)CC1CC2(C1)CN(C)C2)c1ncc(-c2cc3ccccc3nc2OC)[nH]1 [Compound 314] | 1.03 | 5.1 | 405 | 2570 |  |  |  | 
23 | CCC(=O)CCCCC[C@H](NC(=O)C1=NOC2(CCN(CC3CC3)CC2)C1)c1ncc(-c2cc3ccc(=O)n(C)c3cc2OC)o1 [Compound 236] | 0.36 | 9.9 | > 900 | > 900 |  |  |  | 
